What was measured:
[1] = tested on: CCRF-CEM; assay: NCI cytotoxicity screen, Leukemia panel; assay type: cell-based; details: Homo sapiens, single dose 10 µM, negative = lethal, read-out: Percent growth inhibition
Method: (§1) Cytotoxicity was performed at National Cancer Institute (NCI), Bethesda, USA as per their protocols.

[2] = tested on: HL-60(TB); assay: NCI cytotoxicity screen, Leukemia panel; assay type: cell-based; details: Homo sapiens, HL-60, HL-60(TB); single dose 10 µM; negative = lethal; read-out: Percent growth inhibition
Method: as §1

[3] = tested on: K-562; assay: NCI cytotoxicity screen, Leukemia panel; assay type: cell-based; details: Homo sapiens, K562; K-562; single dose 10 µM; negative = lethal; read-out: Percent growth inhibition
Method: as §1

[4] = tested on: MOLT-4; assay: NCI cytotoxicity screen, Leukemia panel; assay type: cell-based; details: Homo sapiens, MOLT-4, MOLT-4; single dose 10 µM; negative = lethal; read-out: Percent growth inhibition
Method: as §1

[5] = tested on: RPMI-8226; assay: NCI cytotoxicity screen, Leukemia panel; assay type: cell-based; details: Homo sapiens; RPMI-8226; single dose 10 µM; negative = lethal; read-out: Percent growth inhibition
Method: as §1

[6] = tested on: SR; assay: NCI cytotoxicity screen, Leukemia panel; assay type: cell-based; details: Homo sapiens, single dose 10 µM, negative = lethal, read-out: Percent growth inhibition
Method: as §1

[7] = tested on: NCI-522; assay: NCI cytotoxicity screen, Non-Small Cell Lung Cancer panel; assay type: cell-based, human; details: Homo sapiens; NCI-522; single dose 10 µM; negative = lethal; read-out: Percent growth inhibition
Method: as §1

[8] = tested on: NCI-H226; assay: as above; assay type: cell-based, human; details: Homo sapiens, single dose 10 µM, negative = lethal, read-out: Percent growth inhibition
Method: as §1

[9] = tested on: NCI-H23; assay: as above; assay type: cell-based, human; details: Homo sapiens, single dose 10 µM, negative = lethal, read-out: Percent growth inhibition
Method: as §1

[10] = tested on: NCI-H322M; assay: as above; assay type: cell-based, human; details: Homo sapiens, single dose 10 µM, negative = lethal, read-out: Percent growth inhibition
Method: as §1

[11] = tested on: HCC-2998; assay: NCI cytotoxicity screen, Colon Cancer panel; assay type: cell-based, human; details: Homo sapiens; HCC-2998; single dose 10 µM; negative = lethal; read-out: Percent growth inhibition
Method: as §1

[12] = tested on: KM12; assay: NCI cytotoxicity screen, Colon Cancer panel; assay type: cell-based, human; details: Homo sapiens, single dose 10 µM, negative = lethal, read-out: Percent growth inhibition
Method: as §1

[13] = tested on: SW-620; assay: NCI cytotoxicity screen, Colon Cancer panel; assay type: cell-based, human; details: Homo sapiens, single dose 10 µM, negative = lethal, read-out: Percent growth inhibition
Method: as §1

[14] = tested on: LOX IMVI; assay: NCI cytotoxicity screen, Melanoma panel; assay type: cell-based, human; details: Homo sapiens, single dose 10 µM, negative = lethal, read-out: Percent growth inhibition
Method: as §1

[15] = tested on: M14; assay: NCI cytotoxicity screen, Melanoma panel; assay type: cell-based, human; details: Homo sapiens, single dose 10 µM, negative = lethal, read-out: Percent growth inhibition
Method: as §1

[16] = tested on: UACC-62; assay: NCI cytotoxicity screen, Melanoma panel; assay type: cell-based, human; details: Homo sapiens, single dose 10 µM, negative = lethal, read-out: Percent growth inhibition
Method: as §1

[17] = tested on: MALME-3M; assay: NCI cytotoxicity screen, Melanoma panel; assay type: cell-based; details: Homo sapiens; MALME-3M; single dose 10 µM; negative = lethal; read-out: Percent growth inhibition
Method: as §1

[18] = tested on: MDA-MB-435; assay: NCI cytotoxicity screen, Melanoma panel; assay type: cell-based; details: Homo sapiens, MDA-MB-435, read-out: Percent growth inhibition
Method: as §1

[19] = tested on: SK-MEL-28; assay: NCI cytotoxicity screen, Melanoma panel; assay type: cell-based; details: Homo sapiens, single dose 10 µM, negative = lethal, read-out: Percent growth inhibition
Method: as §1

[20] = tested on: SK-MEL-2; assay: NCI cytotoxicity screen, Melanoma panel; assay type: cell-based; details: Homo sapiens, single dose 10 µM, negative = lethal, read-out: Percent growth inhibition
Method: as §1

[21] = tested on: SK-MEL-5; assay: NCI cytotoxicity screen, Melanoma panel; assay type: cell-based; details: Homo sapiens, single dose 10 µM, negative = lethal, read-out: Percent growth inhibition
Method: as §1

[22] = tested on: UACC-257; assay: NCI cytotoxicity screen, Melanoma panel; assay type: cell-based; details: Homo sapiens, single dose 10 µM, negative = lethal, read-out: Percent growth inhibition
Method: as §1

[23] = tested on: IGROV1; assay: NCI cytotoxicity screen, Ovarian Cancer panel; assay type: cell-based; details: Homo sapiens, IGROV-1, single dose 10 µM, negative = lethal, read-out: Percent growth inhibition
Method: as §1

[24] = tested on: NCI/ADR-RES; assay: NCI cytotoxicity screen, Ovarian Cancer panel; assay type: cell-based; details: Homo sapiens, single dose 10 µM, negative = lethal, read-out: Percent growth inhibition
Method: as §1

[25] = tested on: OVCAR-4; assay: NCI cytotoxicity screen, Ovarian Cancer panel; assay type: cell-based; details: Homo sapiens; OVCAR-4; single dose 10 µM; negative = lethal; read-out: Percent growth inhibition
Method: as §1

[26] = tested on: OVCAR-5; assay: NCI cytotoxicity screen, Ovarian Cancer panel; assay type: cell-based; details: Homo sapiens, single dose 10 µM, negative = lethal, read-out: Percent growth inhibition
Method: as §1

[27] = tested on: OVCAR-8; assay: NCI cytotoxicity screen, Ovarian Cancer panel; assay type: cell-based; details: Homo sapiens, single dose 10 µM, negative = lethal, read-out: Percent growth inhibition
Method: as §1

[28] = tested on: SK-OV-3; assay: NCI cytotoxicity screen, Ovarian Cancer panel; assay type: cell-based; details: Homo sapiens, single dose 10 µM, negative = lethal, read-out: Percent growth inhibition
Method: as §1

[29] = tested on: ACHN; assay: NCI cytotoxicity screen, Renal Cancer panel; assay type: cell-based; details: Homo sapiens, single dose 10 µM, negative = lethal, read-out: Percent growth inhibition
Method: as §1

[30] = tested on: CAKI-1; assay: NCI cytotoxicity screen, Renal Cancer panel; assay type: cell-based; details: Homo sapiens; CAKI-1; single dose 10 µM; negative = lethal; read-out: Percent growth inhibition
Method: as §1

[31] = tested on: RXF 393; assay: NCI cytotoxicity screen, Renal Cancer panel; assay type: cell-based; details: Homo sapiens, single dose 10 µM, negative = lethal, read-out: Percent growth inhibition
Method: as §1

[32] = tested on: SN12C; assay: NCI cytotoxicity screen, Renal Cancer panel; assay type: cell-based; details: Homo sapiens, single dose 10 µM, negative = lethal, read-out: Percent growth inhibition
Method: as §1

[33] = tested on: UO-31; assay: NCI cytotoxicity screen, Renal Cancer panel; assay type: cell-based; details: Homo sapiens, single dose 10 µM, negative = lethal, read-out: Percent growth inhibition
Method: as §1

[34] = tested on: DU-145; assay: NCI cytotoxicity screen, Prostate Cancer panel; assay type: cell-based, human; details: Homo sapiens, single dose 10 µM, negative = lethal, read-out: Percent growth inhibition
Method: as §1

[35] = tested on: PC-3; assay: NCI cytotoxicity screen, Prostate Cancer panel; assay type: cell-based, human; details: Homo sapiens, single dose 10 µM, negative = lethal, read-out: Percent growth inhibition
Method: as §1

[36] = tested on: BT-549; assay: NCI cytotoxicity screen, Breast Cancer panel; assay type: cell-based; details: Homo sapiens, single dose 10 µM, negative = lethal, read-out: Percent growth inhibition
Method: as §1

[37] = tested on: HS 578 T; assay: NCI cytotoxicity screen, Breast Cancer panel; assay type: cell-based; details: Homo sapiens; HS 578T; single dose 10 µM; negative = lethal; read-out: Percent growth inhibition
Method: as §1

[38] = tested on: MCF7; assay: NCI cytotoxicity screen, Breast Cancer panel; assay type: cell-based; details: Homo sapiens, single dose 10 µM, negative = lethal, read-out: Percent growth inhibition
Method: as §1

[39] = tested on: MDA-MB-231/ATCC; assay: NCI cytotoxicity screen, Breast Cancer panel; assay type: cell-based; details: Homo sapiens, MDA-MB-231, read-out: Percent growth inhibition
Method: as §1

[40] = tested on: MDA-MB-468; assay: NCI cytotoxicity screen, Breast Cancer panel; assay type: cell-based; details: Homo sapiens, single dose 10 µM, negative = lethal, read-out: Percent growth inhibition
Method: as §1

[41] = tested on: T-47D; assay: NCI cytotoxicity screen, Breast Cancer panel; assay type: cell-based; details: Homo sapiens, T47D, T-47D; single dose 10 µM; negative = lethal; read-out: Percent growth inhibition
Method: as §1

[42] = Experimental log P, shake-flask method; assay type: physicochemical; details: n-octanol/phosphate buffer pH 7.4, read-out: Exp. Log P
Method in brief: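 Shake-flask partitioning between n-octanol and phosphate buffer pH 7.4, shaken 50 min, then centrifuged 35 min at 2500 rpm. Buffer-phase absorbance at each compound's λmax measured before and after partitioning. P calculated from absorbance drop and phase volume ratio.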

c1ccc2c(-c3cn4ccnc4c(-c4ccc5c(c4)ncn5C4CCCCC4)n3)cccc2c1 [Compound 12, 8-(1-cyclohexyl-1H-benzo[d]imidazol-5-yl)-6-(naphthalen-1-yl)imidazo[1,2-a]pyrazine] showed an inhibition at 10 µM [1] of 27.2%, an inhibition at 10 µM [2] of roughly 50% and an inhibition at 10 µM [3] of 38%. It also gave an inhibition at 10 µM [4] of roughly 50%, an inhibition at 10 µM [5] of 38.2% and an inhibition at 10 µM [6] of 10.9%. For the same compound, the inhibition at 10 µM [7] was 33%, the inhibition at 10 µM [8] was 17.9% and the inhibition at 10 µM [9] was 9.02%. It also gave an inhibition at 10 µM [10] of 8.38%, an inhibition at 10 µM [11] of less than 1% and an inhibition at 10 µM [12] of 8.69%. It also gave an inhibition at 10 µM [13] of 1.43%, an inhibition at 10 µM [14] of 11.4% and an inhibition at 10 µM [15] of 0.39%. The inhibition at 10 µM [16] was 21%, the inhibition at 10 µM [17] was less than 1% and the inhibition at 10 µM [18] was 4.07%. It also gave an inhibition at 10 µM [19] of less than 1%, an inhibition at 10 µM [20] of 20.6% and an inhibition at 10 µM [21] of 2.13%. The inhibition at 10 µM [22] was 35.5%, the inhibition at 10 µM [23] was 3.68% and the inhibition at 10 µM [24] was 11.8%. For the same compound, the inhibition at 10 µM [25] was 15%, the inhibition at 10 µM [26] was less than 1% and the inhibition at 10 µM [27] was 24%. The inhibition at 10 µM [28] was less than 1%, the inhibition at 10 µM [29] was 8.22% and the inhibition at 10 µM [30] was 20.7%. It also gave an inhibition at 10 µM [31] of 0.15%, an inhibition at 10 µM [32] of 13.6% and an inhibition at 10 µM [33] of 37.9%. It also gave an inhibition at 10 µM [34] of 6.09%, an inhibition at 10 µM [35] of 13.3% and an inhibition at 10 µM [36] of 1.57%. It also gave an inhibition at 10 µM [37] of 4.25%, an inhibition at 10 µM [38] of 35.7% and an inhibition at 10 µM [39] of 18.2%. The inhibition at 10 µM [40] was 5.23%, the inhibition at 10 µM [41] was 22% and the logP [42] was 1.48. For the same compound, the melting point was 199 to 202 °C.

Fc1ccc(-c2cn3ccnc3c(-c3ccc4c(c3)ncn4C3CCCCC3)n2)cc1 [Compound 13, 8-(1-cyclohexyl-1H-benzo[d]imidazol-5-yl)-6-(4-fluorophenyl)imidazo[1,2-a]pyrazine] gave an inhibition at 10 µM [1] of less than 1%, an inhibition at 10 µM [2] of 5.28% and an inhibition at 10 µM [3] of 13.2%. For the same compound, the inhibition at 10 µM [4] was 11.4%, the inhibition at 10 µM [5] was 6.16% and the inhibition at 10 µM [6] was 20.8%. The inhibition at 10 µM [7] was 22.6%, the inhibition at 10 µM [8] was 7.09% and the inhibition at 10 µM [9] was 4.49%. It also gave an inhibition at 10 µM [10] of less than 1%, an inhibition at 10 µM [11] of less than 1% and an inhibition at 10 µM [12] of 7.3%. It also gave an inhibition at 10 µM [13] of less than 1%, an inhibition at 10 µM [14] of 0.76% and an inhibition at 10 µM [15] of 0.73%. For the same compound, the inhibition at 10 µM [16] was 2.44%, the inhibition at 10 µM [17] was less than 1% and the inhibition at 10 µM [18] was less than 1%. The inhibition at 10 µM [19] was less than 1%, the inhibition at 10 µM [20] was 6.3% and the inhibition at 10 µM [21] was 2.9%. It also gave an inhibition at 10 µM [22] of less than 1%, an inhibition at 10 µM [23] of 6.4% and an inhibition at 10 µM [24] of 2.36%. The inhibition at 10 µM [25] was less than 1%, the inhibition at 10 µM [26] was less than 1% and the inhibition at 10 µM [27] was 3.09%. For the same compound, the inhibition at 10 µM [28] was less than 1%, the inhibition at 10 µM [29] was less than 1% and the inhibition at 10 µM [30] was less than 1%. It also gave an inhibition at 10 µM [31] of 36%, an inhibition at 10 µM [32] of less than 1% and an inhibition at 10 µM [33] of 22.8%. It also gave an inhibition at 10 µM [34] of less than 1%, an inhibition at 10 µM [35] of 10.2% and an inhibition at 10 µM [36] of less than 1%. For the same compound, the inhibition at 10 µM [37] was less than 1%, the inhibition at 10 µM [38] was 9.59% and the inhibition at 10 µM [39] was less than 1%. For the same compound, the inhibition at 10 µM [40] was less than 1%, the inhibition at 10 µM [41] was 10.1% and the logP [42] was 1.26. For the same compound, the melting point was 187 to 189 °C.
